US20110028471A1, “COMBINATION THERAPY 238” (ASTRAZENECA AB, priority 2008, published 2011)
Like-named read-outs stand apart in the source and are kept apart here.

Assays:
U87MG xenografts = experiment: U87MG xenograft tumour growth, combination study; type: in vivo; details: female athymic mice, oral gavage once daily, 7 days, Compound A 10 mg/kg/qd, ZD6474 50 mg/kg/qd, combination same doses, compared to control
Procedure: (§1) Human tumour xenografts were established in female athymic mice by injecting 2.3×10^6/0.1 ml U87MG cells subcutaneously in the left hand side flank. When mean tumour volume reached approximately 0.18 cm^3, the mice were randomized into control and treatment groups. The treatment groups received 50 mg/kg ZD6474 (vehicle 1% polysorbate 80 milled overnight) or 10 mg/kg COMPOUND A (30% captisol pH5) or a combination 50 mg/kg ZD6474 and 10 mg/kg COMPOUND A by oral gavage. When administered in combination, COMPOUND A was given 2 hours before the oral dose of ZD6474. The control group received both vehicles (same sequence as above), once daily by oral gavage. Tumor volumes (measured by calliper), animal body weight and tumor condition were recorded twice weekly for the duration of the study. Mice were humanely sacrificed by CO2 euthanasia. Tumour volumes were assessed using bilateral Vernier calliper measurement at least twice weekly and calculated using the formula (length×width)×√(length×width)×(π/6), where length was taken to be the longest diameter across the tumour and width the corresponding perpendicular. Growth inhibition from the start of treatment was assessed by comparison of the differences in tumor volume between control and treated groups. […] Statistical significance was evaluated using a one-tailed, two-sample t test. […]

[1] = body weight loss in U87MG study; type: in vivo, mice; details: Compound A 10 mg/kg, ZD6474 50 mg/kg, range in brackets
Procedure: as §1

pAKT [2] = experiment: pharmacodynamic study, pAKT in U87MG xenograft tissue; type: in vivo, mice; details: 4 days of treatment, 2 hrs after last dosing, Compound A 10 mg/kg, ZD6474 50 mg/kg
[3] = system: Microvessel density (CD31 staining); experiment: microvessel density by CD31 immunohistochemistry, U87MG xenografts; type: in vivo, mice; details: U87MG xenograft, 2 hours after 4 days of treatment; vehicle 59%; Compound A 10 mg/kg, ZD6474 50 mg/kg
Procedure: Microvessel density (MVD) was evaluated using CD31 staining by immuno-histochemistry 2 hours after 4 days of treatment. MVD values were 59% in vehicle-treated animals, reduced to 22% (p<0.05) after ZD6474, 50% (p=0.23) after Compound A, and 28% (p<0.05) after the combination (FIG. 8). There was no statistical interaction between compound A and ZD6474 in the combination-treated tumours (p=0.27).

cleaved caspase 3 [4] = experiment: cleaved caspase 3 immunohistochemistry, U87MG xenografts; type: in vivo, mice; details: U87MG xenograft, 2 hours after 4 days of treatment; control 0.46%; Compound A 10 mg/kg, ZD6474 50 mg/kg
Procedure: The levels of cleaved caspase 3 (percentage of positive nuclei) were determined in tumour xenografts by immunohistochemistry 2 hours after 4 days of treatment.

pS6 [5] = experiment: pharmacodynamic study, pS6 in U87MG xenograft tissue; details: 4 days of treatment, 2 hrs after last dosing, Compound A 10 mg/kg, ZD6474 50 mg/kg
Procedure: A pharmacodynamic study evaluated biomarkers after 4 days of treatment. Animals were dosed with vehicle, ZD6474 (50 mg/kg), Compound A (10 mg/kg) or the combination daily. Compound A was dosed two hours before ZD6474 (or vehicle). Animals were culled and tumour xenograft tissue collected 2 hrs after the last dosing. […] In addition a two-way ANOVA test was performed to analyse the interaction between compounds in the combination group.

HUVEC = HUVEC assay, endothelial cell proliferation; type: cell-based; details: Homo sapiens
Calu-6 tumour xenograft = Calu-6 tumour xenograft in vivo solid tumour model; details: once-daily oral, 28 days
[6] = target: stem cell factor receptor tyrosine kinase (SCF RTK, commonly known as c-Kit) (Homo sapiens, UniProt P10721); experiment: inhibition of c-Kit
NCI-H526 xenografts = experiment: NCI-H526 xenograft tumour growth, combination study; type: in vivo; details: NCI-H526, nude mice, oral gavage; Compound A 20 mg/kg, AZD2171 3 mg/kg, combination same doses; compared with vehicle control
Procedure: Cells were grown in NCI-H526 (RPMI 10% FCS 1% Glutamine 10% Ml), and 1×10^7 cells were implanted into the flank of nude mice (NCI-H526 plus 50% matrigel).
When mean tumor size reached approx 0.2 cm^3, the mice were randomized into control and treatment groups. […] When administered in combination, COMPOUND A was given 2 hours […] the oral dose of the other compound. The control group received the (10% DMSO 90% propylene glycol) vehicle alone, once daily by oral gavage. Tumor volumes (measured by calliper), animal body weight and tumor condition were recorded twice weekly for the duration of the study. Mice were sacrificed by CO2 euthanasia. The tumor volume was calculated (taking length to be the longest diameter across the tumor and width to be the corresponding perpendicular diameter using the formula: (length×width)×√(length×width)×(π/6). Growth inhibition from the start of treatment was assessed by comparison of the differences in tumor volume between control and treated groups. Because the variance in mean tumor volume data increases proportionally with volume (and is therefore disproportionate between groups), data were log-transformed to remove any size dependency before statistical evaluation. Statistical significance was evaluated using a one-tailed, two-sample t test. To analyze the data from the combination study, the statistical tool SigmaStat has been used. […]

A549 tumour xenografts = experiment: A549 xenograft tumour growth, combination study; type: in vivo, mice; details: Compound A 20 mg/kg, AZD2171 3 mg/kg; for tumour growth inhibition: A549, female athymic mice, oral gavage once daily, 21 days, combination same doses, compared to control; for tumours smaller than at start of treatment: A549, individual tumour volumes at the end of the dosing period
Procedure: Human tumour xenografts were established in female athymic mice by injecting 5×10^6/0.1 ml A549a cells subcutaneously in the left hand side flank.
(§2) When mean tumour volume reached approximately 0.27 cm^3, the mice were randomized into control and treatment groups. […] The control group received both vehicles alone (same sequence as above), once daily by oral gavage. Tumor volumes (measured by calliper), animal body weight and tumor condition were recorded twice weekly for the duration of the study. Mice were humanely sacrificed by CO2 euthanasia. Tumour volumes were assessed using bilateral Vernier calliper measurement at least twice weekly and calculated using the formula (length×width)×√(length×width)×(π/6), where length was taken to be the longest diameter across the tumour and width the corresponding perpendicular. Growth inhibition from the start of treatment was assessed by comparison of the differences in tumor volume between control and treated groups. Because the variance in mean tumor volume data increases proportionally with volume (and is therefore disproportionate between groups), data were log-transformed to remove any size dependency before statistical evaluation. Statistical significance was evaluated using a one-tailed, two-sample t test. To analyze the data from the combination study, the statistical tool SigmaStat has been used. A two-way ANOVA test was performed using the factors concentration of drug A and concentration of drug B. The data analyzed was Log(final tumor volume)−Log(initial tumor volume) calculated for each individual animal at the end of the study. This tool is used to assess whether there is a main effect of drug A, a main effect of drug B plus a significant mechanistic interaction between the two compounds A and B (eg, one compound influences the effect of the other compound) which may be interpreted as antagonism, additivity or synergism. The statistical analysis was performed at the end of the dosing period (21 days).

[7] = body weight loss in A549 study; type: in vivo, mice; details: Compound A 20 mg/kg, AZD2171 3 mg/kg, range in brackets
Procedure: as §2, with “To analyze the data from the combination study, the statistical tool SigmaStat has been used.” left out, “This tool is used to assess whether there is a main effect of drug A, a main effect of drug B plus a significant mechanistic interaction between the two compounds A and B (eg, one compound influences the effect of the other compound) which may be interpreted as antagonism, additivity or synergism. The statistical analysis was performed at the end of the dosing period (21 days).” left out

pAKT [8] = experiment: pharmacodynamic study, pAKT in A549 xenograft tissue; type: in vivo, mice; details: 4 days of treatment, 2 hrs after last dosing, Compound A 20 mg/kg, AZD2171 3 mg/kg
Procedure: (§3) Compound A was dosed two hours before AZD2171 (or vehicle).
In the combination group, levels of pAKT were similar to those with Compound A to 58% (p<0.005) compared to control (FIG. 3).

pS6 [9] = experiment: pharmacodynamic study, pS6 in A549 xenograft tissue; type: in vivo, mice; details: 4 days of treatment, 2 hrs after last dosing, Compound A 20 mg/kg, AZD2171 3 mg/kg
Procedure: as §3

[10] = system: Microvessel density (CD31 staining); experiment: microvessel density by CD31 immunohistochemistry, A549 xenografts; type: in vivo, mice; details: A549 xenograft, 2 hours after 4 days of treatment; vehicle 26.6%; Compound A 20 mg/kg, AZD2171 3 mg/kg
Procedure: Microvessel density (MVD) was evaluated using CD31 staining by immunohistochemistry 2 hours after 4 days of treatment.

cleaved caspase 3 [11] = experiment: cleaved caspase 3 immunohistochemistry, A549 xenografts; type: in vivo, mice; details: A549 xenograft, 2 hours after 4 days of treatment; control 0.94%; Compound A 20 mg/kg, AZD2171 3 mg/kg
Procedure: Compound A was dosed two hours before AZD2171 (or vehicle). […] The levels of cleaved caspase 3 (percentage of positive nuclei) were determined in tumour xenografts by immunohistochemistry 2 hours after 4 days of treatment.

Sequence of stem cell factor receptor tyrosine kinase (SCF RTK, commonly known as c-Kit) (P10721 26-976): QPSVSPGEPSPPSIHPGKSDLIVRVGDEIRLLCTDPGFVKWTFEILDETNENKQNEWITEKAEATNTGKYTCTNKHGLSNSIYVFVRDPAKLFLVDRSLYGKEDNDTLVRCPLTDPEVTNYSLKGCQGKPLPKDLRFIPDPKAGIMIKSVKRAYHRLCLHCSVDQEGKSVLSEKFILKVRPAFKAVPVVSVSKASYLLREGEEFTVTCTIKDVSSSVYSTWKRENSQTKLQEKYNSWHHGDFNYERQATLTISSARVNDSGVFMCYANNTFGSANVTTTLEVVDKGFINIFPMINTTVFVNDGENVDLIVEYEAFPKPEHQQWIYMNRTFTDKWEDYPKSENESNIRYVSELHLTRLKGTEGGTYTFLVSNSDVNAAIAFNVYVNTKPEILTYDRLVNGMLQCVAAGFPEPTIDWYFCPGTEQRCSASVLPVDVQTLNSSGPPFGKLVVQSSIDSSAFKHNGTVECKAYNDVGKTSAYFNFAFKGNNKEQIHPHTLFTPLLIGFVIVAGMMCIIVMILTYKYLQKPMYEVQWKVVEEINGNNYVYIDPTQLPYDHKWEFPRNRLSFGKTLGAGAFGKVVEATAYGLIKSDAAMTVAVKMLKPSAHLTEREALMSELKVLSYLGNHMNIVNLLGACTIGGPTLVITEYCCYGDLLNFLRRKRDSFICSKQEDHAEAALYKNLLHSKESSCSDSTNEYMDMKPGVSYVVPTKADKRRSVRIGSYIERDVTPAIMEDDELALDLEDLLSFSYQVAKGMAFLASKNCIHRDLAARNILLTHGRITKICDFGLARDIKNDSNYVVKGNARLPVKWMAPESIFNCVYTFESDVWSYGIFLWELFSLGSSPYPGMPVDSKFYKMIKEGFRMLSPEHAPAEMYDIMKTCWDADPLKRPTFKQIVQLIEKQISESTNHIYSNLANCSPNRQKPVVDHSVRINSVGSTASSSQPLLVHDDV

Structure (SMILES) | tumour growth inhibition (U87MG xenografts) [%] | maximum body weight loss [1] [%] | levels of pAKT (normalised to total) compared to control (pAKT [2]) [%] | MVD values [3] [%] | CC3 values (percentage of positive nuclei) (cleaved caspase 3 [4]) [%] | levels of pS6 (normalised to total) compared to control (pS6 [5]) [%] | IC50 (HUVEC; HUVEC assay, VEGF-stimulated, read-out: IC50, VEGF-stimulated endothelial cell proliferation) [nM] | IC50 (HUVEC; HUVEC, basal (no VEGF stimulation), read-out: IC50, basal endothelial cell proliferation) [nM] | inhibition of growth of Calu-6 tumour xenograft (Calu-6 tumour xenograft; 1.5 mg/kg/day) [%] | inhibition of growth of Calu-6 tumour xenograft (Calu-6 tumour xenograft; 3 mg/kg/day) [%] | inhibition of growth of Calu-6 tumour xenograft (Calu-6 tumour xenograft; 6 mg/kg/day) [%] | inhibition of c-Kit [6] | reduction in geometric mean delta tumour volume (NCI-H526 xenografts) [%] | tumour growth inhibition (A549 tumour xenografts) [%] | tumours smaller than at start of treatment (A549 tumour xenografts) | maximum body weight loss [7] [%] | levels of pAKT (normalised to total) compared to control (pAKT [8]) [%] | levels of pS6 (normalised to total) compared to control (pS6 [9]) [%] | MVD values [10] [%] | CC3 values (percentage of positive nuclei) (cleaved caspase 3 [11]) [%]
COc1cc2c(Nc3ccc(Br)cc3F)ncnc2cc1OCC1CCN(C)CC1 [ZD6474, 4-(4-bromo-2-fluoroanilino)-6-methoxy-7-(1-methylpiperidin-4-ylmethoxy)quinazoline] | −14.6 | 3.77 | 87 | 22 | 0.73 | 108 | – | – | – | – | – | – | – | – | – | – | – | – | – | –
COc1cc2c(Oc3ccc4[nH]c(C)cc4c3F)ncnc2cc1OCCCN1CCCC1 [AZD2171, 4-(4-fluoro-2-methyl-1H-indol-5-yloxy)-6-methoxy-7-(3-(pyrrolidin-1-yl)propoxy)quinazoline] | – | – | – | – | – | – | 0.4 ± 0.2 | > 500 | 49 | 69 | 91 | inhibits c-Kit | 64 | 81.6 | tumour volumes were greater than at start of the treatment | 2.52 | 95 | 126 | 7.75 | 0.43
COc1ccc(-c2ccc3c(N4CCOC[C@@H]4C)nc(N4CCOC[C@@H]4C)nc3n2)cc1CO [Compound A, [5-[2,4-bis[(3S)-3-methylmorpholin-4-yl]pyrido[5,6-e]pyrimidin-7-yl]-2-methoxyphenyl]methanol] | 28.4 | 0.44 | 37 | 50 | 1.64 | 55 | – | – | – | – | – | – | 38 | 99.3 | 4 out of 10 | 3.45 | 48 | 37 | 19.39 | 1.98
